Structures are written as SMILES.

The test system of assay [1] is Hemogenic endothelial cells (HECs) derived from iPS cells. Nature of the assay: Importance of SR1 and IL-3 in production of T cell progenitor (Example 3). In kind it is cell-based, human. Conditions: 12 days culture. As to the method:
Hemogenic endothelial cells (HECs) derived from iPS cells prepared in the same manner as in Example 1 were sorted by BD FACSAria® Fusion and re-suspended in a StemSpan SFEM II medium, followed by seeding the cells into a culture vessel (6-well plate) coated with RN and DLL4-Fc (225,000/6 wells). […] Halfway through the culture, on day 4 after the start of culture, 500 μl of the medium described above was added. On day 7 after the start of culture, a half amount of the medium was replaced. On day 12 after the start of culture, cells were collected with pipetting, and the cell number was measured. The cells were stained with the antibodies shown in Table 2 and measured with BD FACSAria™ Fusion.

The test system of assay [2] is Hemogenic endothelial cells (HECs) induced from iPS cells. Nature of the assay: Differentiation culture of iPS-derived hemogenic endothelial cells into CD34+/CD7+ T cell progenitors (Example 1). In kind it is cell-based, human. As to the method:
The cell population containing hemogenic endothelial cells (HECs) for use was a floating cell population obtained by differentiating iPS cells (Ff-I01s04: derived from peripheral blood mononuclear cells of a healthy individual) provided from the Center for iPS Cell Research and Application, Kyoto University, according to known methods (e.g., the methods disclosed in Cell Reports 2 (2012) 1722-1735, or WO2017/221975). Specifically, Ff-I01s04 was seeded at 1×10^6 cells/well in an ultra-low-attachment 6-well plate (Day 0). The cells were cultured under hypoxic conditions (5% 02) for 4 days in EB medium (StemPro-34 supplemented with 10 μg/ml human insulin, 5.5 μg/ml human transferrin, 5 ng/ml sodium selenite, 2 mM L-glutamine, […] α-monothioglycerol, and 50 μg/ml ascorbic acid 2-phosphate) supplemented with 50 ng/ml BMP4, 50 ng/ml bFGF, 50 ng/ml VEGF, and 2 μM SB431542 (Day 4). Subsequently, culture was further performed in a medium supplemented with 50 ng/ml bFGF, 50 ng/ml VEGF, and 50 ng/ml SCF for 4 days (Day 8), thereby obtaining a cell population containing HECs. The floating cell population containing HECs were stained with the following antibody set. […] On day 11 after the start of culture, cells were collected with pipetting, and the cell number was measured. […]

Assay [3] deals with CD34^+ cells. Conditions: NPL 5 (Boitano et al.); cited from earlier work.

On to `CC(C)n1cnc2c(NCCc3ccc(O)cc3)nc(-c3csc4ccccc34)nc21` [SR1, 4-(2-((2-(benzo[b]thiophen-3-yl)-9-isopropyl-9H-purin-6-yl)amino)ethyl)phenol], for which the “expression level of CD34” value in assay [1] (flow cytometry, control vs -SR1 condition, FIG. 4) is recorded as “plays an important role in maintaining the expression level of CD34”. In addition, the “cell proliferation (cell number) when the factor is excluded from the additives” value in assay [1] (control: 1 nM SR1, 10 ng/ml IL-3 plus SCF, Flt3L, TPO, IL-7, IL-6, FIG. 3) was “reduced”. Further, in assay [2] (10 days of culture, 1 nM SR1 with SCF, Flt3L, TPO, IL-7, IL-6, IL-3 in StemSpan SFEM II on RetroNectin/DLL4-Fc coated plate), the cell growth result is “about 150 fold”. Besides, in assay [2] (same culture as E1, flow cytometry after culture), the “proportion of cells that were proT (CD34+/CD7+) cells” value is “about 25%”. For the same compound, in assay [3], the “expansion of CD34+ cells” value was “promoted expansion”.

These data come from patent US20230159891A1, “T CELL PROGENITOR PRODUCTION METHOD” (Kyoto University, priority 2020, published 2023).
